The text below walks through data of patent US5985878A, “Angiogenesis inhibiting pyridazinamines” (Janssen Pharmaceuticals, N.V., priority 1996, dated 1999).

Bounds are passed on as bounds.

Assay [1] has as its system rat aortic ring. The assay can be described thus: Angiogenesis inhibitory activity in vitro, rat aortic ring model (microvessel formation). It is filed as cell-based. The conditions noted are these: 192 h, microvessel area following eight days in culture. On the procedure:
Angiogenosis inhibitory activity was measured in vitro using the rat aortic ring model of angiogenesis as described by Nicosia, R. F. and Ottinetti in "Laboratory Investigation", vol. 63, p. 115, 1990. The ability of compounds to inhibit microvessel formation was compared to velicle-treatedcontrol rings.

Assay [2] concerns angiogenesis. Description: In vivo angiogenesis inhibitory activity, Matrigel model. The arrangement: species or system warm-blooded animal. The conditions noted are these: po, administered orally. On the procedure: The in vivo angiogenesis inhibitory activity was measured using the Matrigel model, as described in U.S. Pat. No. 5,382,514. Briefly, a liquid, containing extracts of murine basement membrane and an angiogenic growth factor (e.g. VEGF, bFGF, aFGF), was injected in a warm-blooded animal where it fonns a gel matrix. After a period of time, the gel is recovered from the anmimal and angiogenesis is quantitated. The test compounds were administered orally at a dose of 0.1 mg/kg.

Take `Cc1nsc(-c2ccc(N3CCC(c4cccc(C(F)(F)F)c4)CC3)nn2)n1` [Compound 31, 3-(3-methyl-1,2,4-thiadiazol-5-yl)-6-[4-[3-(trifluoromethyl)phenyl]-1-piperidinyl]pyridazine]: the IC50 in assay [1] came out at 0.052 nM. Also, the inhibition in vivo at 0.1 mg/kg in assay [2] was above 70%.

Molecule `Cc1nsc(-c2ccc(N3CCN(c4cc(Cl)ccc4Cl)CC3)nn2)n1` [Compound 27] returned an IC50 in assay [1] of 0.2 nM.

The molecule `Cc1nsc(-c2ccc(N3CCC(OCc4cccc(C(F)(F)F)c4)CC3)nn2)n1` [Compound 48] came in with an IC50 in assay [1] of 0.5 nM. Compared with the last molecule, the IC50 is about 2.5-fold higher.

In the case of `Cc1nsc(-c2ccc(N3CCN(C4CCN(c5cccc(C(F)(F)F)c5)CC4)CC3)nn2)n1` [Compound 44], in assay [1], the IC50 turned out to be 0.7 nM.

Molecule `COc1ccc(Cl)c(N2CCN(c3ccc(-c4nc(C)ns4)nn3)CC2)c1` [Compound 75] returned an IC50 in assay [1] of 0.6 nM. Also, the inhibition in vivo at 0.1 mg/kg in assay [2] is above 70%.

In assay [1], `Cc1nsc(-c2ccc(N3CCN(c4cccc(Br)c4)CC3)nn2)n1` [Compound 72] returned an IC50 of 0.5 nM.

On to `Cc1nsc(-c2ccc(N3C4CCC3CC(c3cccc(C(F)(F)F)c3)C4)nn2)n1` (stereo not shown) [Compound 177], for which, in assay [1], half-maximal inhibition (IC50) required 0.7 nM. The molecule further showed an inhibition in vivo at 0.1 mg/kg in assay [2] above 70%.

In assay [1], `Cc1nsc(-c2ccc(N3CCN(c4cc(C(F)(F)F)cc(C(F)(F)F)c4)CC3)nn2)n1` [Compound 74] yielded an IC50 of 0.05 nM. In assay [2], this molecule returned an inhibition in vivo at 0.1 mg/kg above 70%.

Take `Cc1nsc(-c2ccc(N3CCC(N4CCN(c5cc(C(F)(F)F)cc(C(F)(F)F)c5)CC4)CC3)nn2)n1` [Compound 161]: the IC50 in assay [1] was below 0.1 nM.

In turn, `Cc1nsc(-c2ccc(N3CCC(N4CCN(c5cccc(C(F)(F)F)c5)CC4)CC3)nn2)n1` [Compound 53, 3-(3-methyl-1,2,4-thiadiazol-5-yl)-6-[4-[4-[3-(trifluoromethyl)phenyl]-1-piperazinyl]-1-piperidinyl]pyridazine] registered an IC50 in assay [1] of 0.3 nM. The molecule further returned an inhibition in vivo at 0.1 mg/kg in assay [2] above 70%.

`Cc1nsc(-c2ccc(N3CCC(Nc4cccc(C(F)(F)F)c4)CC3)nn2)n1` [Compound 47] yielded an inhibition in vivo at 0.1 mg/kg in assay [2] above 70%.

Regarding `Cc1nsc(-c2ccc(N3CCC(C(=O)c4cccc(C(F)(F)F)c4)CC3)nn2)n1` [Compound 130], in assay [1], half-maximal inhibition (IC50) required 0.3 nM. That is a sub-nanomolar value.

In assay [1], `Cc1nsc(-c2ccc(N3CCC(c4cc(C(F)(F)F)cc(C(F)(F)F)c4)CC3)nn2)n1` [Compound 111] gave an IC50 of 0.2 nM.

For `Cc1nsc(-c2ccc(N3CCC(N4CCN(c5cc(Cl)cc(Cl)c5)CC4)CC3)nn2)n1` [Compound 160], the IC50 in assay [1] amounted to 0.2 nM.

Consider `Cc1nsc(-c2ccc(N3CCN(c4ccc(Br)c(C(F)(F)F)c4)CC3)nn2)n1` [Compound 88, 3-[4-[4-bromo-3-(trifluoromethyl)phenyl]-1-piperazinyl]-6-(3-methyl-1,2,4-thiadiazol-5-yl)pyridazine], for which the inhibition in vivo at 0.1 mg/kg in assay [2] is above 70%.

Take `Cc1nsc(-c2ccc(N3CC[C@@H](c4cccc(C(F)(F)F)c4)[C@@H](C)C3)nn2)n1` (relative stereo) [Compound 108]: the IC50 in assay [1] amounted to 0.2 nM.

For `Cc1nsc(-c2ccc(N3CCN(c4cccc(Cl)c4)CC3)nn2)n1` [Compound 2, 3-[4-(3-chlorophenyl)-1-piperazinyl]-6-(3-methyl-1,2,4-thiadiazol-5-yl)pyridazine], the midpoint of inhibition in assay [1], the IC50, lay at 0.6 nM. In assay [2], this molecule displayed an inhibition in vivo at 0.1 mg/kg above 70%.

In assay [2], `Cc1nsc(-c2ccc(N3CCC(c4cccc(C(F)(F)F)c4)C3)nn2)n1` (stereo not shown) [Compound 30] registered an inhibition in vivo at 0.1 mg/kg above 70%.

For `Cc1nsc(-c2ccc(N3CCC(Nc4cccc(C(F)(F)F)c4)C3)nn2)n1` (stereo not shown) [Compound 169], half-maximal inhibition in assay [1] (IC50) was put at 0.8 nM.

Molecule `Cc1nsc(-c2ccc(N3CCC(Sc4cccc(Cl)c4)CC3)nn2)n1` [Compound 139] showed a half-maximal inhibitory concentration (IC50) in assay [1] of 0.5 nM.

Consider `Cc1nsc(-c2ccc(N3CCN(c4cccc(Cl)c4Cl)CC3)nn2)n1` [Compound 24], for which the half-inhibitory concentration (IC50) in assay [1] came to 0.3 nM.

For `Cc1nsc(-c2ccc(N3CCC(Cc4cccc(C(F)(F)F)c4)CC3)nn2)n1` [Compound 132], in assay [1], inhibition was half-maximal at 0.2 nM (IC50).

As to `Cc1nsc(-c2ccc(N3CCC(C(C#N)c4cccc(Cl)c4)CC3)nn2)n1` (stereo not shown) [Compound 138], in assay [1], the IC50 was 0.2 nM. In addition, the inhibition in vivo at 0.1 mg/kg in assay [2] was above 70%.

Consider `Cc1nsc(-c2ccc(N3CCC(COc4cccc(Cl)c4)CC3)nn2)n1` [Compound 56], for which the IC50 in assay [1] amounted to 0.9 nM.

Consider `Cc1nsc(-c2ccc(N3CCC(N(C)c4cccc(C(F)(F)F)c4)CC3)nn2)n1` [Compound 142], for which the IC50 in assay [1] is 0.3 nM.

Molecule `Cc1nsc(-c2ccc(N3CCN(c4cc(Cl)cc(Cl)c4)CC3)nn2)n1` [Compound 23] gave an IC50 in assay [1] of 0.05 nM. Against the preceding molecule, the IC50 is about 6-fold lower.

With `Cc1nsc(-c2ccc(N3CCC(OC(c4ccccc4)c4ccccc4)CC3)nn2)n1` [Compound 54], the inhibition in vivo at 0.1 mg/kg in assay [2] is above 70%.

As for `Cc1nsc(-c2ccc(N3CC=C(c4cccc(C(F)(F)F)c4)CC3)nn2)n1` [Compound 66], the midpoint of inhibition in assay [1], the IC50, lay at 0.3 nM.

Consider `Cc1nsc(-c2ccc(N3CCC(C(O)c4cccc(C(F)(F)F)c4)CC3)nn2)n1` (stereo not shown) [Compound 134], for which, in assay [1], 0.6 nM corresponded to half-maximal inhibition (IC50). The inhibition in vivo at 0.1 mg/kg in assay [2] was above 70%.

Turning to `Cc1nsc(-c2ccc(N3CCCC(c4cccc(C(F)(F)F)c4)CC3)nn2)n1` (stereo not shown) [Compound 32], the midpoint of inhibition in assay [1], the IC50, lay at 0.9 nM.

`Cc1nsc(-c2ccc(N3CCN(c4cccc(C(F)(F)F)c4)CC3)nn2)n1` [Compound 1, 3-(3-methyl-1,2,4-thiadiazol-5-yl)-6-[4-[3-(trifluoromethyl)phenyl]-1-piperazinyl]pyridazine] showed an IC50 in assay [1] of 0.3 nM.

`Cc1nsc(-c2ccc(N3CCC(N(C)Cc4cccc(C(F)(F)F)c4)CC3)nn2)n1` [Compound 137] showed a 50% inhibitory concentration (IC50) in assay [1] of 0.5 nM.

With `Cc1nsc(-c2ccc(N3CCC(C(=O)c4cccc(Cl)c4)CC3)nn2)n1` [Compound 135], the midpoint of inhibition in assay [1], the IC50, lay at 0.5 nM.

In turn, `Cc1nsc(-c2ccc(N3CCN(c4ccccc4C(F)(F)F)CC3)nn2)n1` [Compound 76] showed an IC50 in assay [1] of 0.2 nM.

In assay [1], `Cc1nsc(-c2ccc(N3CCN(c4cc(Cl)c(Cl)cc4Cl)CC3)nn2)n1` [Compound 82] returned an IC50 of 0.8 nM. The same molecule yielded an inhibition in vivo at 0.1 mg/kg in assay [2] above 70%.

As to `Cc1nsc(-c2ccc(N3CCN(c4ccc(Br)cc4[N+](=O)[O-])CC3)nn2)n1` [Compound 85], in assay [1], the IC50 was below 0.1 nM.

The molecule `Cc1nsc(-c2ccc(N3CCN(c4cccc(Cl)c4)C(C)C3)nn2)n1` (stereo not shown) [Compound 13] yielded an IC50 in assay [1] of 0.8 nM.
